Entries after “also recorded” stand apart in the source; their conditions may differ. Like-named read-outs stand apart in the source and are kept apart here. One block for each compound: values may come before it.
Assays:
Type in all cases: physicochemical
[1] = 19F NMR aqueous solubility limit measurement; details: for solubility: pH 6.9, aqueous with cosolvent or surfactant or cyclodextrin, kinetic from dmso stock
Protocol: ^19F NMR Aqueous Solubility Limit Measurements: Compound was dissolved in DMSO and then added to 10 mM pH=6.9 phosphate buffer/D2O (9:1 v/v) to make 5% DMSO stock in 500 μL phosphate buffer/D2O at concentration of 10/50/100/150/200/250 μM. Samples were measured with Bruker AVANCE III 500@ equipped with a 5 mm BBFO SmartProbe®. ^19F spectra were obtained at 471 MHz with dummy scans=4, acquisition time=0.57 s, delay time =1 s, […], and the number of scans=800 UV-Visible Spectra: Stock solutions of DD-1, DD-3, and DD-5 were prepared at 10 mM in DMSO and stored in the dark. A 10 mM phosphate buffer at pH=7 was prepared and stock solutions were diluted to 50 μM. UV-visible absorption spectra were obtained using a Horiba Aqualog®.

[2] = Phase at room temperature
Protocol: All seven organofluorine temperature sensors of Table 1a were synthesized under the optimized reaction conditions for enabling facile synthesis in the following General Scheme and Examples. Specifically, temperature sensors DD1-DD7 were prepared through an SNAr reaction. Compounds DD-2 and DD-4 required one extra oxidation of DD-1 and DD-3 to provide the respective sulfones. Yields of the SNAr reactions using thiol, HS—(CF2)7—CF3, were low […], while the yields with HS—CH2CH2CH2CF2CF3 fell in the range of […].

[3] = Direct photolysis kinetics and quantum yield, solar simulator; details: for quantum yield of direct photolysis: 10 mM pH 7 phosphate buffer
[4] = Quantitative 19F NMR fluorine mass balance after ozonation
Protocol: (§1) Quantitative ^19F NMR was conducted to determine if any of the fluorinated functional groups were susceptible to degradation. The environmental persistence and potential impact of these fluorinated temperature sensors will be a function of not only the persistence of the parent compound, but also that of any fluorinated reaction products. Photolysis and ozonation represent natural and engineered processes, respectively, that could degrade these compounds after their use and introduction into the water system.
(§2) ^19F NMR spectra were taken to quantify and partition degradation products from the parent compound signals for photolysis and ozonation (FIG. 7). […] The solutions analyzed contained 50 μM of DD-1 with 14 fluorine atoms, thus a total fluorine concentration of 700 μM, with 200 μM attributed to the aromatic fluorines (Ar—F; −137.04 ppm), 200 μM attributed to the CF2 (−121.34 ppm), and 300 μM attributed to the CF3 (−89.14 ppm) as shown in FIG. 7. […] Top: regional spectrum of untreated DD-1. Middle: regional spectrum of DD-1 degraded by solar simulator. Bottom: regional spectrum of DD-1 degraded by ozone. (left) Spectra of CF3 region. (middle) Spectra of CF2 region. (right) Spectra of Ar—F region. For photolysis and ozonation, 61% and 87% the parent Ar—F signal was lost respectively. A peak at ˜139.1 ppm appeared following ozonation and is hypothesized to be a hydroxylated aromatic ring product, which is a known reaction process for aromatics during ozonation (Vialaton, D., et al (1998) J Photochem Photobiol A Chem 119 (1):39-45). For the parent CF2, the signal decreased by 45% and 79%, but new CF2 products appeared upfield. Under both degradative conditions, new peaks appear in the near regions of the CF2, likely due to ring opening processes. […] For the parent CF3, the signal decreased by 38% and 69%, again with new CF3 products appearing upfield. An excess of 39 μM and 48 μM fluorine for the solar simulator and ozonation, respectively, was found within the CF3 region. These groups are hypothesized to be products produced by opening of the aromatic ring, which could be vinyl fluorines with oxygen and/or sulfur substituents.
Ozone-mediated Degradation: The 10 mM DMSO stock solution of DD-1 was used to make 100 mL of a 50 μM solution in the 10 mM pH=7 phosphate buffer. The solution was placed in an Erlenmeyer flask in an ice bath. Ozone (O3) was produced using ultra-high pure oxygen gas (99.99%) with a Pacific Ozone O3 generator and bubbled directly into the sample solution. O3 concentration was previously measured using UV-Vis spectroscopy (Beckman Coulter DU 530). The concentration of O3 (with an ε=3000 M^−1 cm^−1) was determined by direct absorbance at 258 nm. By using a 3:1 dilution, the absorbance obtained is equivalent to the O3 concentration in mM. After 30 minutes the O3 concentration in ultrapure water was 0.61 mM or 29.16 mg/L. Samples were taken over time for 300 minutes and parent compound degradation was monitored via HPLC.

[5] = Quantitative 19F NMR fluorine mass balance after photolysis (solar simulator)
Protocol: as §1, §2
Photolysis Experiments: Stock solutions were diluted to 10 μM in the phosphate buffer for kinetic experiments and 50 μM for ^19F NMR experiments. Solutions were placed in 10 mL quartz tubes sealed with cork stoppers with no contact to the solution. The solutions were photolyzed in (i) an Atlas Suntest CPS+® solar simulator with a 1500 W xenon lamp at an intensity of 765 W m-2 using a wavelength range of 290-800 nm at a 30° angle, and (ii) a 450 W medium pressure polychromatic mercury vapor lamp with a quartz immersion well with cooling water circulation, a Pyrex 280 nm cutoff filter (Ace Glass), and a merry-go-round sample holder. Samples were photolyzed until ˜60 to 80% degradation of the parent compound was achieved. For each compound an equivalent tube was prepared and wrapped in aluminum foil as a dark control. Experiments were performed in triplicate

[6] = Direct photolysis kinetics, mercury vapor lamp

SMILES: FC(F)(F)C(F)(F)C(F)(F)C(F)(F)N(C(F)(F)C(F)(F)C(F)(F)C(F)(F)F)C(F)(F)C(F)(F)C(F)(F)C(F)(F)F [CC-1, perfluorotributylamine, reference compound]
water solubility (in words) [1]: limited water solubility
Phase [2]: liquid
Phase ([2]; listed as CC-1 PFTBA): solid at room temperature

SMILES: Fc1c(F)c(-c2c(F)c(F)c(SCCC(F)(F)C(F)(F)C(F)(F)C(F)(F)C(F)(F)C(F)(F)C(F)(F)C(F)(F)F)c(F)c2F)c(F)c(F)c1SCCC(F)(F)C(F)(F)C(F)(F)C(F)(F)C(F)(F)C(F)(F)C(F)(F)C(F)(F)F [CC-2, (perfluoro-[1,1′-biphenyl]-4,4′-diyl)bis((3,3,4,4,5,5,6,6,7,7,8,8,9,9,10,10,10-heptadecafluorodecyl)sulfane), reference compound]
Phase [2]: solid

SMILES: Fc1c(F)c(SCCC(F)(F)C(F)(F)C(F)(F)C(F)(F)C(F)(F)C(F)(F)C(F)(F)C(F)(F)F)c(F)c(F)c1SCCC(F)(F)C(F)(F)C(F)(F)C(F)(F)C(F)(F)C(F)(F)C(F)(F)C(F)(F)F [CC-3, (perfluoro-1,4-phenylene)bis((3,3,4,4,5,5,6,6,7,7,8,8,9,9,10,1 0,10-heptadecafluorodecyl)sulfane), reference compound]
Phase [2]: solid

SMILES: Fc1c(F)c(SCCCC(F)(F)C(F)(F)F)c(F)c(F)c1SCCCC(F)(F)C(F)(F)F [DD-1, (perfluoro-1,4-phenylene)bis((4,4,5,5,5-pentafluoropentyl)sulfane)]
solubility [1]: ≤ 200 µM
Phase [2]: liquid phase at room temperature
quantum yield of direct photolysis [3]: 0.0272 mol Ei^−1
sum of fluorine concentrations for Ar—F, F− and ring opening products/vinyl F ([4]; O3, initial Ar—F 200 μM): 200 µM
Fluoride (F−) production ([4]; ozonation, 50 μM): 117 µM
excess fluorine found within the CF3 region ([4]; ozonation, 50 μM): 48 µM
parent Ar—F 19F NMR signal lost ([4]; ozonation, 50 μM): 87%
parent CF2 signal decrease ([4]; ozonation, 50 μM): 79%
parent CF3 signal decrease ([4]; ozonation, 50 μM): 69%
Fluoride (F−) production ([5]; photolysis, 50 μM): 79 µM
parent Ar—F 19F NMR signal lost ([5]; photolysis, 50 μM): 61%
parent CF2 signal decrease ([5]; photolysis, 50 μM): 45%
parent CF3 signal decrease ([5]; photolysis, 50 μM): 38%
sum of fluorine concentrations for Ar—F, F− and ring opening products/vinyl F ([5]; photolysis, initial Ar—F 200 μM): 198 µM
excess fluorine found within the CF3 region ([5]; solar simulator, 50 μM): 39 µM

Phase [2]: white solids; also recorded: solid
SMILES: O=S(=O)(CCCC(F)(F)C(F)(F)F)c1c(F)c(F)c(S(=O)(=O)CCCC(F)(F)C(F)(F)F)c(F)c1F [DD-2, 1,2,4,5-tetrafluoro-3,6-bis((4,4,5,5,5-pentafluoropentyl)sulfonyl) benzene]

SMILES: Fc1c(F)c(-c2c(F)c(F)c(SCCCC(F)(F)C(F)(F)F)c(F)c2F)c(F)c(F)c1SCCCC(F)(F)C(F)(F)F [DD-3, (perfluoro-[1,1′-biphenyl]-4,4′-diyl)bis((4,4,5,5,5-pentafluoropentyl)sulfane)]
solubility [1]: ≤ 200 µM
Phase [2]: liquid phase at room temperature
quantum yield of direct photolysis [3]: 0.0267 mol Ei^−1

SMILES: O=S(=O)(CCCC(F)(F)C(F)(F)F)c1c(F)c(F)c(-c2c(F)c(F)c(S(=O)(=O)CCCC(F)(F)C(F)(F)F)c(F)c2F)c(F)c1F [DD-4, 2,2′,3,3′,5,5′,6,6′-octafluoro-4,4′-bis((4,4,5,5,5-pentafluoropentyl)sulfonyl)-1,1′-biphenyl]
Phase [2]: solid

SMILES: Fc1c(F)c(Sc2c(F)c(F)c(SCCCC(F)(F)C(F)(F)F)c(F)c2F)c(F)c(F)c1SCCCC(F)(F)C(F)(F)F [DD-5, bis(2,3,5,6-tetrafluoro-4-((4,4,5,5,5-pentafluoropentyl)thio)phenyl)sulfane]
rank of photolysis rate constant [6]: fastest
Phase [2]: solid
rank of photolysis rate constant [3]: fastest
quantum yield of direct photolysis [3]: 0.0520 mol Ei^−1

SMILES: O=S(=O)(c1c(F)c(F)c(SCCCC(F)(F)C(F)(F)F)c(F)c1F)c1c(F)c(F)c(SCCCC(F)(F)C(F)(F)F)c(F)c1F [DD-6, (sulfonylbis(2,3,5,6-tetrafluoro-4,1-phenylene))bis((4,4,5,5,5-pentafluoropentyl)sulfane)]
Phase [2]: solid

— patent US20240302387A1, “HIGHLY FLUORINATED COMPOUNDS FOR 19F MRI-BASED THERMOMETRY” (Regents of the University of Minnesota, priority 2023, published 2024)
